Reference: PMC6792352, “Limited Chemical Structural Diversity Found to Modulate Thyroid Hormone Receptor in the Tox21 Chemical Library” (Environmental Health Perspectives, 2019)
Structures can show the parent of a compound that is named as a salt.

Test: in vitro
Conditions: rat, gh3-tre-luc cells

SMILES	CC50 at 24 h (AC50 (uM) modified / 1000) [µM]	also measured
C[C@]12CC[C@H]3[C@@H](CC=C4C[C@@H](O)CC[C@@]43C)[C@@H]1CC[C@@H]2O [Androstenediol]	–	CC50 at 24 h (AC50 (uM) modified / 1000, Tox21_110001=Tox21_112495, viability, 1 nM T3 present, 24 h): > 50 µM
C[C@H]1C[C@H]2[C@@H]3CCC4=CC(=O)C=C[C@]4(C)[C@@]3(Cl)[C@@H](O)C[C@]2(C)[C@@]1(O)C(=O)CO [Beclomethasone]	> 50	–
CCCCCCCCN [1-Octanamine]	> 90	–
CCCOc1ccc(C(=O)OCCN(CC)CC)cc1N [Proparacaine hydrochloride]	> 50	–
CCOC(=O)c1ccccc1C(=O)OCC [Diethyl phthalate]	> 90	–
CCC1CO1 (stereo not shown) [1,2-Epoxybutane]	> 90	–
COP(=O)(OC)SCn1c(=O)oc2cc(Cl)cnc21 [Azamethiphos]	> 90	–
OC(CCCN1CCCCC1)(c1ccccc1)c1ccccc1 [Diphenidol]	> 50	–
CC1(C)S[C@@H]2[C@H](NC(=O)C(C(=O)O)c3ccsc3)C(=O)N2[C@H]1C(=O)O (stereo partly shown) [Ticarcillin disodium]	> 50	–
CCCCN(CCCC)C(=S)SSC(=S)N(CCCC)CCCC [Tetrabutylthiuram disulfide]	> 90	–
C[C@@]12C(=O)OC(=O)[C@]1(C)[C@H]1CC[C@@H]2O1 [Cantharidin]	2.01	–
CC(C)(O)C(=O)O [2-Hydroxyisobutyric acid]	> 90	–
CN(C)c1ccc(CCO)cc1 [p-N,N-Dimethylaminophenethanol]	> 90	–
ClC1=C(Cl)[C@]2(Cl)[C@H]3[C@H]([C@H]4C=C[C@@H]3C4)[C@@]1(Cl)C2(Cl)Cl [Isodrin]	–	CC50 at 24 h (AC50 (uM) modified / 1000, Tox21_110001=Tox21_301429, viability, 1 nM T3 present, 24 h): 66.4 µM
C=CC(C)(CCC=C(C)C)OC(=O)CC (stereo not shown) [3,7-Dimethylocta-1,6-dien-3-yl propanoate]	> 90	–
O=C(O)Cc1ccc(-c2ccccc2)cc1 [Felbinac]	> 20	–
CC(Oc1ccc(Oc2ncc(C(F)(F)F)cc2Cl)cc1)C(=O)O (stereo not shown) [Haloxyfop]	> 90	–
CCCN(CCC)C(=O)C(CCC(=O)OCCCN1CCN(CCOC(=O)Cc2c(C)n(C(=O)c3ccc(Cl)cc3)c3ccc(OC)cc23)CC1)NC(=O)c1ccccc1 (stereo not shown) [Proglumetacin]	10.5	–
CNC(C)C(O)c1ccc(O)cc1 (stereo not shown) [1-(4-Hydroxyphenyl)-2-methyl-2-methylaminoethanol hydrochloride]	> 50	–
Nc1ccccn1 [2-Aminopyridine]	> 90	–
CC/C=C\CCCCCCCCCCOC(C)=O [(Z)-11-Tetradecenyl acetate]	> 90	–
CCN1CN(CC)CN(CC)C1 [1,3,5-Triethylhexahydro-s-triazine]	> 90	–

SMILES	CC50 at 24 h (AC50 (uM) modified / 1000) [µM]	also measured
CN1CCN(CCCN2c3ccccc3Sc3ccc(Cl)cc32)CC1 [Prochlorperazine dimaleate]	5.73	–
COc1cc(C[C@H](C)N)c(OC)cc1C [(S)-(+)-2,5-Dimethoxy-4-methylamphetamine hydrochloride]	> 100	–
O=C(NCC(O)CO)c1c(I)c(C(=O)NCC(O)CO)c(I)c(N(CCO)C(=O)CO)c1I (stereo not shown) [Ioversol]	> 20	–
C=C(C)C(=O)OCCOc1ccccc1 [Ethylene glycol phenyl ether methacrylate]	> 90	–
CCC[N+]1(C)CCCC1 [1-Methyl-1-propylpyrrolidinium bromide]	> 90	–
O=C(O)C1(c2ccc3c(c2)OC[C@H](Cc2ccc(-c4ccccc4)cc2)[C@H]3O)CCCC1 [CP-105696]	50.9	–
COc1ccc2cc(S(=O)(=O)N[C@H](CC(=O)N[C@H](Cc3ccc(CN4[C@H](C)CCC[C@@H]4C)cc3)C(=O)N(C)C(C)C)c3ccc4c(c3)OCO4)ccc2c1 [SSR 240612]	4.04	–
Brc1c2ccccc2c(Br)c2ccccc12 [9,10-Dibromoanthracene]	> 5	–
CS(=O)(=O)OCCCNCCCOS(C)(=O)=O [Improsulfan tosylate]	> 50	–
COCCOCCOCCO [2-[2-(2-Methoxyethoxy)ethoxy]ethanol]	> 90	–
Nc1ccc(NC(=O)c2ccc(N)cc2)cc1 [4,4'-Diaminobenzanilide]	> 90	–
C[C@H]1CCC[C@H](O)CCCCCc2cc(O)cc(O)c2C(=O)O1 [Zearalanol]	–	CC50 at 24 h (AC50 (uM) modified / 1000, Tox21_110001=Tox21_110973, viability, 1 nM T3 present, 24 h): > 50 µM; CC50 at 24 h (AC50 (uM) modified / 1000, Tox21_110001=Tox21_201203, viability, 1 nM T3 present, 24 h): 53.6 µM
NCC1(Cc2noc(=O)[nH]2)CCCCC1 [PD 0200347]	> 90	–
C=C(C)[C@@H]1CCC2=CCC[C@@H](C)[C@]2(C)C1 [Valencene]	> 90	–
CCCCCCCCCCCCCC(=O)OCC [Ethyl tetradecanoate]	> 90	–
CN/C(=N\[N+](=O)[O-])NCc1cnc(Cl)s1 [Clothianidin]	> 90	–
Cc1cccc(C)c1 [m-Xylene]	> 90	–
N#CC(O)c1ccccc1 (stereo not drawn) [alpha-Hydroxybenzeneacetonitrile]	–	CC50 at 24 h (AC50 (uM) modified / 1000, Tox21_110001=Tox21_200804, viability, 1 nM T3 present, 24 h): > 90 µM
CCC(C)c1cc([N+](=O)[O-])cc([N+](=O)[O-])c1O (stereo not shown) [Dinoseb]	–	CC50 at 24 h (AC50 (uM) modified / 1000, Tox21_110001=Tox21_201878, viability, 1 nM T3 present, 24 h): > 90 µM; CC50 at 24 h (AC50 (uM) modified / 1000, Tox21_110001=Tox21_300421, viability, 1 nM T3 present, 24 h): 20.4 µM
C[C@]12C=CC(=O)C=C1CC[C@@H]1[C@@H]2[C@@H](O)C[C@@]2(C)[C@H]1CC[C@]2(O)C(=O)CO [Prednisolone]	> 90	–
ClC(Cl)C(Cl)Cl [1,1,2,2-Tetrachloroethane]	–	CC50 at 24 h (AC50 (uM) modified / 1000, Tox21_110001=Tox21_200074, viability, 1 nM T3 present, 24 h): > 90 µM
N=C(N)c1ccc(OCCCOc2ccc(C(=N)N)cc2)cc1 [Propamidine]	> 50	–

SMILES	CC50 at 24 h (AC50 (uM) modified / 1000) [µM]	also measured
CC(C)(C)C(=O)C(=O)O [3,3-Dimethyl-2-oxobutyric acid]	> 90	–
CC1CCC(C(C)CS)CC1S (stereo not shown) [Dipentenedimercaptan]	> 90	–
O=C(O)[C@@H]1[C@H](C(=O)O)[C@H]2CC[C@@H]1O2 [Endothal]	> 90	–
CCCCCCOCCO [2-Hexyloxyethanol]	> 90	–
CC(=O)OC[C@H]1O[C@@H](n2ncc(=O)[nH]c2=O)[C@H](OC(C)=O)[C@@H]1OC(C)=O [6-Azaribine]	> 50	–
CCC1Nc2cc(Cl)c(S(N)(=O)=O)cc2S(=O)(=O)N1 (stereo not shown) [Ethiazide]	> 50	–
C/C=C/C=N/NC(=O)c1ccncc1 [Crotoniazide]	> 50	–
CC(Cl)CCl (stereo not shown) [1,2-Dichloropropane]	–	CC50 at 24 h (AC50 (uM) modified / 1000, Tox21_110001=Tox21_200362, viability, 1 nM T3 present, 24 h): > 90 µM
O=C(/C=C/c1ccccc1)NCCO [Idrocilamide]	> 50	–
NCCCNCCCN [Norspermidine]	57.5	–
OCCc1ccccn1 [2-(Pyridin-2-yl)ethanol]	> 90	–
CC(C)(C)NC(N)=O [(1,1-Dimethylethyl)urea]	> 90	–
CC(=O)Nc1ccc(NC(=S)NC(=O)c2ccc(C(C)(C)C)cc2)cc1 [Tenovin-1]	7.56	–
COc1ccc(C[C@H](C)NC[C@@H](O)c2ccc(O)c(NC=O)c2)cc1 [Formoterol hemifumarate dihydrate]	> 50	–
NCCc1c[nH]cn1 [Histamine]	> 50	–
CO/N=C(\C(=O)N[C@@H]1C(=O)N2C(C(=O)O)=C(COC(C)=O)CS[C@H]12)c1csc(N)n1 [Cefotaxime sodium]	> 50	–
O=C(C(=O)c1ccco1)c1ccco1 [alpha-Furil]	> 90	–
COc1cc([C@@H]2c3cc4c(cc3[C@@H](O[C@@H]3O[C@@H]5CO[C@@H](C)O[C@H]5[C@H](O)[C@H]3O)[C@H]3COC(=O)[C@H]23)OCO4)cc(OC)c1OP(=O)(O)O [Etoposide phosphate]	> 50	–
CCCCCCOC(=O)CCCCCCCC(=O)OCCCCCC [Dihexyl nonanedioate]	> 90	–
C#CC(O)CCCCC (stereo not shown) [1-Octyn-3-ol]	> 90	–
O=C(NCO)NCO [Dimethylolurea]	> 100	–
